Data as given in patent US20220016115A1, “USP19 INHIBITORS FOR USE IN THERAPY” (ALMAC DISCOVERY LIMITED, priority 2018, published 2022).

Test system: diet-induced obese (DIO) mouse
Test: Oral glucose tolerance test (OGTT) in diet-induced obese mice
Type: in vivo
Description: To assess obesity and insulin resistance, a diet-induced obesity mouse model was used.
Male C57BL6/J mice were continuously provided with high-fat diet (D12451, 45% kcal as fat; Research Diets, New Jersey, USA) and filtered tap water ad libitum for the duration of the study. From day 0, mice were administered vehicle i.p. BID, USP19 inhibitor (ADC-141) i.p. BID at 5 mg/kg or 25 mg/kg, or positive control liraglutide 0.1 mg/kg s.c. BID. Mice were allocated to treatment groups to balance the groups on the basis of body weight, food and water intake prior to the start of treatment.
Body weight was measured daily. On Day 13, body composition was assessed by DEXA. On Day 15, fasting glucose and insulin levels were measured before and during an oral glucose tolerance test (OGTT) to assess improvements in glucose control. The OGTT was performed following an overnight fast. […] An OGTT was performed the following morning (approx. 16h post fast). Mice were dosed with vehicle or test compound (starting at 08.45) to a timed schedule 30 minutes prior to the administration of the glucose challenge (2.0 g/kg po). Blood samples were taken immediately prior to dosing (B1), immediately prior to glucose administration (B2) and 15, 30, 60 and 120 minutes after glucose administration.

**Q.** How did the “insulin AUC” value (0-60 and 0-120 minutes, 25 mg/kg ip bid) turn out when `C[C@H](CC1CCCCC1)C(=O)N1CC[C@@](O)(Cn2cc(C(=O)N3CCNCC3)c(-c3ccccc3)cc2=O)C2(CCCC2)C1` [ADC-141, 1-(((S)-7-((R)-3-Cyclohexyl-2-methylpropanoyl)-10-hydroxy-7-azaspiro[4.5]decan-10-yl)methyl)-4-phenyl-5-(piperazine-1-carbonyl)pyridin-2(1H)-one] was run?
**A.** reduced

**Q.** And the “glucose AUCB2” value (0-120 minutes only, 25 mg/kg ip bid, vs vehicle)?
**A.** significantly reduced

**Q.** What about the “glucose AUC” value (25 mg/kg ip bid, vs vehicle) of the same compound?
**A.** significantly reduced

**Q.** And the plasma insulin (30, 60 and 120 minutes post-glucose, 25 mg/kg ip bid)?
**A.** reduced

**Q.** And the plasma glucose (all time points pre- and post-glucose, 25 mg/kg ip bid, vs vehicle)?
**A.** significantly reduced

**Q.** What about the fasting plasma glucose (following 2 weeks of treatment) of the same compound?
**A.** effective at decreasing
